These results are taken from publication PMC9554508, “ARumenamides: A novel class of potential antiarrhythmic compounds” (Frontiers in Pharmacology, 2022).

pIC50: −log10 of the molar value.

For orientation: pIC50 means the negative decadic logarithm of the IC50, by convention in mol/L. A high value points to a small IC50.

The target of this assay is T1, Nav1.5 (wild type; α-subunit co-transfected with the β1 subunit) (Homo sapiens, UniProt Q14524).
T1 construct: gene SCN5A; full-length alpha subunit transiently co-transfected with beta1 subunit and eGFP (separate cDNAs) in HEK293; with Sodium channel regulatory subunit beta-1
T1 sequence (Q14524 whole entry): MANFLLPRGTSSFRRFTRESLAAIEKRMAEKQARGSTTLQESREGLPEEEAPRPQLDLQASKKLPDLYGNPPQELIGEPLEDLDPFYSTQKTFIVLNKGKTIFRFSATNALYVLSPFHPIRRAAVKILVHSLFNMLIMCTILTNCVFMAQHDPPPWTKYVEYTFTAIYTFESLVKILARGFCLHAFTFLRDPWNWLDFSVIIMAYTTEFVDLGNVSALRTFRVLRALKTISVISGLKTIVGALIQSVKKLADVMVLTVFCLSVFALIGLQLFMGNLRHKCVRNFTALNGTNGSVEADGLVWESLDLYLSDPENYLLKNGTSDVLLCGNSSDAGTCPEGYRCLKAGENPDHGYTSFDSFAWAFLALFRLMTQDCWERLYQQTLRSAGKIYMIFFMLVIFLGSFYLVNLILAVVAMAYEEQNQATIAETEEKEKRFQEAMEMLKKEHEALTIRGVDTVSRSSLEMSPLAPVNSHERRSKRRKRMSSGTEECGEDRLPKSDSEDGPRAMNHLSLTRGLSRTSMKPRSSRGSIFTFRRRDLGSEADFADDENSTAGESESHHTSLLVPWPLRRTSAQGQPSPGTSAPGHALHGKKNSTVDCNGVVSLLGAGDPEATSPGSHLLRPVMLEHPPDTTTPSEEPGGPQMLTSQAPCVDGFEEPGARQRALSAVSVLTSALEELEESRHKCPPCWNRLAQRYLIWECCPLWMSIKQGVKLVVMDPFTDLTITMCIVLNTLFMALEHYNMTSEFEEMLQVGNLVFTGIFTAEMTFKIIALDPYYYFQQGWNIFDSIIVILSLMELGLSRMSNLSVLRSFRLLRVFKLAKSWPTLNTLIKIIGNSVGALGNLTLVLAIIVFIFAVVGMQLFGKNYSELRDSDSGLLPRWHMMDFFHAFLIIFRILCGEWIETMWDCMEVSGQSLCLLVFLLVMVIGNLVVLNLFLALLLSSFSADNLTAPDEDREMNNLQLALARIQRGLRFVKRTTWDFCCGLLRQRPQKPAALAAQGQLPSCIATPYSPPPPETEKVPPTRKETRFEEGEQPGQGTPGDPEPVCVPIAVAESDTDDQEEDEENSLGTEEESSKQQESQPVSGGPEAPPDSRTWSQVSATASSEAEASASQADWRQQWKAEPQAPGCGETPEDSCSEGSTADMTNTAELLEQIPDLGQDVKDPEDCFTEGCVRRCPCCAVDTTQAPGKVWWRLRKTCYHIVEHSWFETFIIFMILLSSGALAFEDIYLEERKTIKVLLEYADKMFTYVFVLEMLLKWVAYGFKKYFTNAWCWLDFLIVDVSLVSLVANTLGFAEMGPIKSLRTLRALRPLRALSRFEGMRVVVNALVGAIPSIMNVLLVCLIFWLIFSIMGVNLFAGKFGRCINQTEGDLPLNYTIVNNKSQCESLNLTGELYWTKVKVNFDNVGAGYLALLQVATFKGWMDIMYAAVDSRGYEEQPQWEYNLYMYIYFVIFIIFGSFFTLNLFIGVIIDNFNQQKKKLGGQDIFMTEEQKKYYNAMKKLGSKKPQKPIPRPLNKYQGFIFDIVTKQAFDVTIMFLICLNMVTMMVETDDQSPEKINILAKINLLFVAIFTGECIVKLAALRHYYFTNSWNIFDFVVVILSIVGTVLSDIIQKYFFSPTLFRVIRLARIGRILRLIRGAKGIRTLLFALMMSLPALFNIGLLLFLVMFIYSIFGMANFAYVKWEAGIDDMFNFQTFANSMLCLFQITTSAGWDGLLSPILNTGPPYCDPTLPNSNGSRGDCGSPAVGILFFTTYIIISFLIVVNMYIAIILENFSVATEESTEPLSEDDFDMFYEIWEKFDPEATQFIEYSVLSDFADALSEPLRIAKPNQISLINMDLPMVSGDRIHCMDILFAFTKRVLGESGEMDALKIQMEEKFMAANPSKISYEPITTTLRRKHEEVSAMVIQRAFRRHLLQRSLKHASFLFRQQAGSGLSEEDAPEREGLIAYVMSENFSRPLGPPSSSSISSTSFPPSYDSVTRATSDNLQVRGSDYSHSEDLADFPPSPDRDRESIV
T1 sequence (Q07699 19-218 partner): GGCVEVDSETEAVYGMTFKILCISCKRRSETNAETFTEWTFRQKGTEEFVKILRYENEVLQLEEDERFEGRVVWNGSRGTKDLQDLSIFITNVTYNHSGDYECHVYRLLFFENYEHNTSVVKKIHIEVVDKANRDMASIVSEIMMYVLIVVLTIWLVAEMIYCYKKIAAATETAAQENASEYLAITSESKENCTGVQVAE
The assay is described as follows: whole-cell patch clamp, peak INa block at -20 mV, Hill fit. In kind it is cell-based. From the text: whole-cell patch clamp, peak INa block at -20 mV, Hill fit on Nav1.5 (wild type; α-subunit co-transfected with the β1 subunit)
Consider `O=C(NCc1ccco1)c1ccc2[nH]c(=O)c(=O)[nH]c2c1` [AR-051, N-(2-furylmethyl)-2,3-dioxo-quinoxaline-6-carboxamide], for which the pIC50 is 5.12. In the case of `CN(C)[C@@H](CNC(=O)c1ccc2[nH]c(=O)c(=O)[nH]c2c1)c1ccco1` [AR-189, N-[(2S)-2-(dimethylamino)-2-(2-furyl)ethyl]-2,3-dioxo-quinoxaline-6-carboxamide], the pIC50 was 4.90. Next, `C=CCNS(=O)(=O)c1ccc2[nH]c(=O)[nH]c2c1` [AR-674, N-allyl-2-oxo-benzimidazole-5-sulfonamide]: 5.19; `COc1cccc(NS(=O)(=O)c2ccc3[nH]c(=O)[nH]c3c2)c1` [AR-802, N-(3-methoxyphenyl)-2-oxo-benzimidazole-5-sulfonamide]: 4.46. Next, `CCc1ccccc1NS(=O)(=O)c1ccc2[nH]c(=O)[nH]c2c1` [AR-807, N-(2-ethylphenyl)-2-oxo-benzimidazole-5-sulfonamide]: 5.01.
